Test results reported in article PMC12645437, “Orthogonal IMiD-Degron Pairs Induce Selective Protein Degradation in Cells” (ACS Chemical Biology, 2025).

How the values were obtained:
[1] = target: FDIP mutant ZF degron fused to EGFP (Homo sapiens, UniProt Q96SW2+Q9UKT9, N149D/Q147F/Q150I/S154P); test: Ratiometric EGFP:mCherry flow cytometry degradation assay, 18 h
[2] = target: T1, ZF-EGFP fusion protein with the HEIP, AEVK, WEIS, or WT ZF degron (Homo sapiens, UniProt Q9UKT9, N149E/Q147A/Q150V/S154K); test: Western blot for ZF-EGFP fusion protein; format: cell-based; details: transduced Jurkat, 18 h
T1 construct: The degron spans residues 130–189 of IKZF3; expressed in transfected cells; host or cells: Jurkat, lentivirally transduced, presorted mCherry+

[3] = target: T2, ZF-EGFP fusion protein with the HEIP, AEVK, WEIS, or WT ZF degron (Homo sapiens, UniProt Q9UKT9, N149E/Q147H/Q150I/S154P); test: Western blot for ZF-EGFP fusion protein; format: cell-based; details: transduced Jurkat, 18 h
T2 construct: The degron spans residues 130–189 of IKZF3; expressed in transfected cells; host or cells: Jurkat, lentivirally transduced, presorted mCherry+

[4] = target: WEIK mutant ZF degron fused to EGFP (Homo sapiens, UniProt Q96SW2+Q9UKT9, N149E/Q147W/Q150I/S154K); test: Ratiometric EGFP:mCherry flow cytometry degradation assay, 18 h
WEIK mutant ZF degron fused to EGFP, sequence (Q9UKT9 130-189 Q147W/N149E/Q150I/S154K): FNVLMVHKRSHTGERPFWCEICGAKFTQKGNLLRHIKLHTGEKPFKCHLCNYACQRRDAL
WEIK mutant ZF degron fused to EGFP, sequence (Q96SW2 whole entry, the tested form may be a part): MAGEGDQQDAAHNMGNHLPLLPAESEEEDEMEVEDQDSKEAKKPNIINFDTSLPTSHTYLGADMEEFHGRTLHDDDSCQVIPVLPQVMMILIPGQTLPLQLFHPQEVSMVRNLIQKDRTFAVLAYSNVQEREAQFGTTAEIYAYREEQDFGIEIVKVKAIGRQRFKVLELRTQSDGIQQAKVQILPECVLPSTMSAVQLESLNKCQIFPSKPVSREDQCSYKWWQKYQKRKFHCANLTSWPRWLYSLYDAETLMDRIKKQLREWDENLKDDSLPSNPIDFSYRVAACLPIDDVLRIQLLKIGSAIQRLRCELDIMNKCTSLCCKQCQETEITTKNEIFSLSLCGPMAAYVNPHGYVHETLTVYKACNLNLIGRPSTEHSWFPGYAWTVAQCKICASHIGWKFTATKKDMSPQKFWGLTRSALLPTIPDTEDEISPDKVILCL
WEIK mutant ZF degron fused to EGFP, sequence (Q16531 whole entry partner, the tested form may be a part): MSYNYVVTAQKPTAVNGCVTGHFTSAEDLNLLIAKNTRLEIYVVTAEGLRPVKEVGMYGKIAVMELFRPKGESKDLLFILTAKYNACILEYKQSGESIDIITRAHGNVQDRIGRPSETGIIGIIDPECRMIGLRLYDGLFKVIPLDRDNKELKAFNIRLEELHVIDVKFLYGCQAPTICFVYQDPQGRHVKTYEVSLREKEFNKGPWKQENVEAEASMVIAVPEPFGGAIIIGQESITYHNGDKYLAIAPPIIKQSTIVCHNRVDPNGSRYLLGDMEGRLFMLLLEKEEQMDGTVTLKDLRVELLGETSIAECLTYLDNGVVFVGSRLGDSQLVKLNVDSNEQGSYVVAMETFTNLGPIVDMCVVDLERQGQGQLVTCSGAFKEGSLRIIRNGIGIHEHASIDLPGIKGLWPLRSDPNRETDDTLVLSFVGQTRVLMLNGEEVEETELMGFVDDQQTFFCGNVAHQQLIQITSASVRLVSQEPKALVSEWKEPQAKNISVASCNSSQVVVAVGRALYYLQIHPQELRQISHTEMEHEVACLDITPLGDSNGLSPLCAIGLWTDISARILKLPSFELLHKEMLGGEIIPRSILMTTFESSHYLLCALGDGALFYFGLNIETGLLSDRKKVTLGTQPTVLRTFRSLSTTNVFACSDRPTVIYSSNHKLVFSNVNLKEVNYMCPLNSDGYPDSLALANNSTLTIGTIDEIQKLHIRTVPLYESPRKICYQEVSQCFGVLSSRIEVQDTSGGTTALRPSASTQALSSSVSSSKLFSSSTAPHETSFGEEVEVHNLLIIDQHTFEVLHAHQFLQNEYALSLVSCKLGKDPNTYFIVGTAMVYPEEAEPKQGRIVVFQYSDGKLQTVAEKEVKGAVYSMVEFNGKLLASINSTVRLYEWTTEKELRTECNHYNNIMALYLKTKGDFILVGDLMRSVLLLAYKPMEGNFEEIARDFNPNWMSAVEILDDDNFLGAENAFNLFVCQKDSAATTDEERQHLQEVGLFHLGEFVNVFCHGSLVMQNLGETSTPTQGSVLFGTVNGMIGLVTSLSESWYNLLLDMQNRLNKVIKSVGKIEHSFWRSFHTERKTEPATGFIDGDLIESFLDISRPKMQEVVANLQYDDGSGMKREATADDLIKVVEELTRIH

[5] = target: FEVP mutant ZF degron fused to EGFP (Homo sapiens, UniProt Q96SW2+Q9UKT9, N149E/Q147F/Q150V/S154P); test: as above
[6] = target: T3, HA-HPRT1-WEIS (Homo sapiens, UniProt Q96SW2+Q9UKT9, N149E/Q147W/Q150I); test: HA antibody immunoblotting in HEK293T cells; format: cell-based; details: 18 h, Western blot
T3 construct: IKZF3 130aa-142aa 170-189aa fused to EGFP; HPRT1 (protein of interest, fusion partner N-terminal of the degron); expressed in transfected cells; host or cells: HEK293T, lentivirally transduced (Cilantro2-derived plasmid, Addgene #74450, EGFP replaced by HA-POI-WEIS)

[7] = test system: Jurkat cells (TRIM28-transduced and untransduced); test: CellTiter-Glo cell viability assay; format: cell-based, human; details: 100 pM – 10 μM, 24 h
Description: Figure S22. CellTiter-Glo assay to assess cell viability of Jurkat cells lentivirally transduced with TRIM28 with either N-terminal or C-terminal WEIS degron tag (or untagged control) and HiBit peptide tag, then incubated (alongside untransduced Jurkat cells) with a concentration curve of […]
(1 picture or pasted object on this page, not shown here) […]
mixed with the Cas9 RNPs and then electroporated using a 4D-Nucleofector (Lonza) on pulse code CL-120. Estimation of knockout efficiency was performed by PCR amplification of the sgRNA target site using primers described in ‘PCR primers for amplifying sgRNA target site’ below. PCR products were Sanger sequenced and editing efficiency was assessed using the online […]
HiBit and CellTiter-Glo® (CTG) Assays […]
spanning 169 pM–10 μM (final assay concentration). […]
HiBit signal was measured by adding 25 µL of the lytic detection reagent from the Nano-Glo® HiBiT Extracellular Detection System (Promega), prepared as per manufacturer protocol. […] Both assays were read using PHERAstar microplate luminescence reader (BMG Labtech). The data have been expressed as % of DMSO control and represent three independent biological replicates. […]
signal was measured by adding 40 µL of the Nano-Glo lytic detection reagent (Promega),

[8] = target: T4, ZF-EGFP fusion protein with the HEIP, AEVK, WEIS, or WT ZF degron (Homo sapiens, UniProt Q9UKT9, N149E/Q147W/Q150I); test: Western blot for ZF-EGFP fusion protein; format: cell-based; details: transduced Jurkat, 18 h
T4 construct: The degron spans residues 130–189 of IKZF3; expressed in transfected cells; host or cells: Jurkat, lentivirally transduced, presorted mCherry+

[9] = target: T5, HA-NanoLuc-WEIS (Homo sapiens, UniProt Q96SW2+Q9UKT9, N149E/Q147W/Q150I); test: Nano-Glo luminescence assay in HEK293T cells; format: cell-based; details: NanoGlo
T5 construct: pLVX-Sprout-IKZF3 130-189aa Q147W N149E Q150I (WEIS); expressed in transfected cells; host or cells: HEK293T, lentiviral transduction, puromycin-selected
Description: To this end, a nuclear protein, CDK9, and a cytoplasmic protein, HPRT1, were selected, in addition to a well-characterized enzyme capable of generating bioluminescence, NanoLuc. , Fusion constructs comprising a POI with an N-terminal HA tag linked to the POI by two glycine residues and a C-terminal WEIS motif linked to the POI by a flexible [sequence] linker region were exogenously expressed in HEK293T cells.
Compound 23 (10 mM stock in DMSO) was serially diluted 10-fold to create an 5-point dilution spanning 1n M–10 μM (final assay concentration) and an untreated control, with all concentrations at 0.1% DMSO. HEK293T cells transduced with HA-NanoLuc-WEIS lentiviral vectors were seeded in white, opaque, flat-bottom 96-well plate (Falcon) at 2 × 10^4 cells per well in 40 µL
incubating at rt for 3 minutes, then reading using an EnVision multimode plate reader
(PerkinElmer). […] Three biological repeats
were carried out for this assay, with each biological replicate plate comprising three replicate

[10] = target: T6, TRIM28 with C-terminal WEIS degron tag and HiBit tag (Homo sapiens, UniProt Q96SW2+Q9UKT9, N149E/Q147W/Q150I); test: HiBiT luminescence degradation assay; format: cell-based; details: Jurkat, 24 h
T6 construct: pLVX-Sprout-IKZF3 130-189aa Q147W N149E Q150I (WEIS); TRIM28 (fusion partner / protein of interest, gene TRIM28, human entry Q13263 by my knowledge); expressed in transfected cells; host or cells: Jurkat, lentiviral transduction; endogenous TRIM28 knocked out by CRISPR

[11] = target: WDIA mutant ZF degron fused to EGFP (Homo sapiens, UniProt Q96SW2+Q9UKT9, N149D/Q147W/Q150I/S154A); test: Ratiometric EGFP:mCherry flow cytometry degradation assay, 18 h
WDIA mutant ZF degron fused to EGFP, sequence (Q9UKT9 130-189 Q147W/N149D/Q150I/S154A): as the sequence (Q9UKT9 130-189 Q147W/N149E/Q150I/S154K) above, with E20D, K25A counted along it
WDIA mutant ZF degron fused to EGFP, sequence (Q96SW2 whole entry, the tested form may be a part): as the sequence (Q96SW2 whole entry, the tested form may be a part) above
WDIA mutant ZF degron fused to EGFP, sequence (Q16531 whole entry partner, the tested form may be a part): as the sequence (Q16531 whole entry partner, the tested form may be a part) above

[12] = test system: MM.1S cells; test: TMTpro quantitative proteomics, 16 h; details: 10 μM
Description: Quantitative proteomics screens were carried out in untransduced Jurkat cells, embryonic stem cells (ESCs), and the multiple myeloma cell line, MM.1S. We used Jurkat cells, as our work up to this point had employed this cell line, and we selected ESCs and MM.1S cells as they express known CRBN neosubstrates, including IKZF1, IKZF3, RAB28, RNF166, SALL4, ZFP91, and ZNF827.
Proteomics - cell lysis and protein digestion
The viability of Jurkat cells was tested after 16-h treatment with corresponding chemicals
viable cells in each condition. Next, ~10^7 cells per condition were collected by centrifugation (1000 rpm), washed twice with ice-cold PBS, and lysed in RIPA buffer [50 mM HEPES pH 7.4, 150 mM NaCl, 1% sodium deoxycholate, 1% NP-40, 0.1% SDS, 10 mM sodium pyrophosphate, 10 mM β-glycerophosphate, 2.5 mM MgCl2, 200 µM TCEP, phosphatase and protease inhibitor cocktail (in-house)], to produce whole cell extracts. Whole-cell extracts were sonicated, and protein concentrations were determined using the Bradford assay. Protein extracts (100 µg) were subjected to disulfide bond reduction with 5 mM TCEP (10 min) and alkylation with 25 mM chloroacetamide (20 min). Methanol–chloroform precipitation was performed prior to protease digestion. […]

[13] = target: WNQS mutant ZF degron fused to EGFP (Homo sapiens, UniProt Q96SW2+Q9UKT9, Q147W); test: Ratiometric EGFP:mCherry flow cytometry degradation assay, 18 h

FDIP mutant ZF degron fused to EGFP, sequence (Q9UKT9 130-189 Q147F/N149D/Q150I/S154P): as the sequence (Q9UKT9 130-189 Q147W/N149E/Q150I/S154K) above, with W18F, E20D, K25P counted along it
FDIP mutant ZF degron fused to EGFP, sequence (Q96SW2 whole entry, the tested form may be a part): as the sequence (Q96SW2 whole entry, the tested form may be a part) above
FDIP mutant ZF degron fused to EGFP, sequence (Q16531 whole entry partner, the tested form may be a part): as the sequence (Q16531 whole entry partner, the tested form may be a part) above

In the case of `CC(C)(C)c1ccc2c(c1)C(=O)N(C1CCC(=O)NC1=O)C2=O` (stereo not drawn) [Compound 19], the “Selectivity (WT/mutant)” value ([1]; DC50(WT)/DC50(FDIP)) is reported as 12.0, the DC50 ([1]; FDIP, Jurkat, 18 h) is reported as 63.1 nM and the pDC50 ([1]; FDIP, Jurkat, 18 h) is reported as 7.20. The “degradation of EGFP tagged with AEVK degron (Western blot)” value [2] was “complete degradation”, the “degradation of EGFP tagged with HEIP degron (Western blot)” value [3] was “complete degradation” and the “Selectivity (WT/mutant)” value ([4]; DC50(WT)/DC50(WEIK)) was 18.1. For the same molecule, the DC50 ([4]; WEIK, Jurkat, 18 h) was 42 nM, the pDC50 ([4]; WEIK, Jurkat, 18 h) was 7.38 and the “Selectivity (WT/mutant)” value ([5]; DC50(WT)/DC50(FEVP)) was 15.1. The DC50 ([5]; FEVP, Jurkat, 18 h) was 50.1 nM and the pDC50 ([5]; FEVP, Jurkat, 18 h) was 7.30.
`CN1CCN(c2ccc3c(c2)C(=O)N(C2CCC(=O)NC2=O)C3=O)CC1` (stereo not drawn) [Compound 23] was tested, and the D max [6] was 49%, the DC50 [6] was 67.1 nM and the cell viability [7] was “did not affect the cell viability”. The “degradation of EGFP tagged with WEIS degron (Western blot)” value [8] was “complete degradation”, the D max ([9]; 6 h) was 53% and the D max ([9]; 18 h) was 35%. The DC50 ([9]; 18 h) was 290 nM, the DC50 [10] was 125 nM and the D max ([10]; with 10 μM) was 83%. The “Selectivity (WT/mutant)” value ([11]; DC50(WT)/DC50(WDIA)) was 22.0, the DC50 ([11]; WDIA, Jurkat, 18 h) was 28.8 nM and the pDC50 ([11]; WDIA, Jurkat, 18 h) was 7.54. The “proteins degraded (quantitative proteomics)” value [12] was “did not significantly (Welch’s t test) induce degradation of any protein”, the “Selectivity (WT/mutant)” value ([13]; DC50(WT)/DC50(WNQS)) was 5 and the DC50 ([13]; WNQS, Jurkat, 18 h) was 126 nM. It also gave a pDC50 ([13]; WNQS, Jurkat, 18 h) of 6.90.
